Activity calls are given as the source filed them. The calls are words filed in the database; no cut-off is given here.
What was measured:
[1] = target: T1, Muscarinic acetylcholine receptor M2 (Homo sapiens) (UniProt P08172); assay: Antagonist activity at human muscarinic M2 receptor assessed as remaining activity measured as percentage of maximum response generated from 80% of saturating dose of ACh at 30 uM by calcium mobilization assay; format: functional
T1 sequence (whole entry): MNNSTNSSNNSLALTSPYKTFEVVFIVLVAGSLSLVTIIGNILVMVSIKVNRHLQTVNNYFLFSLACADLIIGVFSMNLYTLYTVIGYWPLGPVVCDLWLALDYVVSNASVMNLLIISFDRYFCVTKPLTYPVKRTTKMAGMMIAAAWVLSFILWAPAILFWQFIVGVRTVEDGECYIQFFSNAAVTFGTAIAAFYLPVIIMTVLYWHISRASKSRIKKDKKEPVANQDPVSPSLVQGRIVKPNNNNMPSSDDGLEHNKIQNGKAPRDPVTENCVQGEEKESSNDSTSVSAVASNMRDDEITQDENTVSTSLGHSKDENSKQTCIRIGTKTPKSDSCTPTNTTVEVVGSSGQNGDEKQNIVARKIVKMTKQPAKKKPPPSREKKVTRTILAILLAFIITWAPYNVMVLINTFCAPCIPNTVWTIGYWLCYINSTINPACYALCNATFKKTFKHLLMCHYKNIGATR

[2] = target: T2, Muscarinic acetylcholine receptor M1 (Homo sapiens) (UniProt P11229); assay: Agonist activity at human muscarinic M1 receptor at 30 uM by calcium mobilization assay relative to acetylcholine; format: functional
T2 sequence (whole entry): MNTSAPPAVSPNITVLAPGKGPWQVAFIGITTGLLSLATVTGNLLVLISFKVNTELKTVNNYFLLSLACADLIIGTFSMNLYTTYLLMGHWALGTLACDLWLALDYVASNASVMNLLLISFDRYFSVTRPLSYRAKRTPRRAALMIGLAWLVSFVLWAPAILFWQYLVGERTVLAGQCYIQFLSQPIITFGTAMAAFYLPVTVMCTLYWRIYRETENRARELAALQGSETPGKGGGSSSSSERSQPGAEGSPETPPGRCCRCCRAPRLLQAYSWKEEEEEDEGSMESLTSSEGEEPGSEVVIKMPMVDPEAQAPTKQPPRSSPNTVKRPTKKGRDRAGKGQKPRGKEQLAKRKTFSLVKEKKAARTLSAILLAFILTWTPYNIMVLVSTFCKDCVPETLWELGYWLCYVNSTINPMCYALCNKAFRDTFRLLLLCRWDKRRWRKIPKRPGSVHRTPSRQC

[3] = target: T2, Muscarinic acetylcholine receptor M1 (Homo sapiens); assay: Agonist activity at human muscarinic M1 receptor at 30 uM relative to acetylcholine; format: functional
[4] = target: T3, Muscarinic acetylcholine receptor M1 (Homo sapiens, UniProt P11229); assay: Agonist activity at human muscarinic M1 receptor; format: functional; details: read-out: EC50
T3 sequence (P11229 whole entry): T2 sequence (whole entry)

[5] = target: T4, Muscarinic acetylcholine receptor M4 (Homo sapiens) (UniProt P08173); assay: Antagonist activity at human muscarinic M4 receptor assessed as remaining activity measured as percentage of maximum response generated from 80% of saturating dose of ACh at 30 uM by calcium mobilization assay; format: functional
T4 sequence (whole entry): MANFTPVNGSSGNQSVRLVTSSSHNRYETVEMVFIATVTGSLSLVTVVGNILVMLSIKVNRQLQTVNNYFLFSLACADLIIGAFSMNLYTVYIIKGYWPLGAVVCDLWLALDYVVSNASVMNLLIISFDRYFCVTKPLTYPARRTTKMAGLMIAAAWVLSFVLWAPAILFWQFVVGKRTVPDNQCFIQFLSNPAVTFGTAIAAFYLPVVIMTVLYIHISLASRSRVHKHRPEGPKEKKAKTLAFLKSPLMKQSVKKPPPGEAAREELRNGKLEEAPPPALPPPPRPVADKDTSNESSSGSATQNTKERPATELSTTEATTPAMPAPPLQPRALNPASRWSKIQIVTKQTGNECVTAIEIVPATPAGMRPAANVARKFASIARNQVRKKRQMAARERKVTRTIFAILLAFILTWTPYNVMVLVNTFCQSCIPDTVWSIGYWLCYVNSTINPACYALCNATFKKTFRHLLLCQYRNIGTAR

[6] = target: T5, Muscarinic acetylcholine receptor M3 (Homo sapiens, UniProt P20309); assay: Antagonist activity at human muscarinic M3 receptor by calcium mobilization assay
Target sequence in this assay (P20309 whole entry): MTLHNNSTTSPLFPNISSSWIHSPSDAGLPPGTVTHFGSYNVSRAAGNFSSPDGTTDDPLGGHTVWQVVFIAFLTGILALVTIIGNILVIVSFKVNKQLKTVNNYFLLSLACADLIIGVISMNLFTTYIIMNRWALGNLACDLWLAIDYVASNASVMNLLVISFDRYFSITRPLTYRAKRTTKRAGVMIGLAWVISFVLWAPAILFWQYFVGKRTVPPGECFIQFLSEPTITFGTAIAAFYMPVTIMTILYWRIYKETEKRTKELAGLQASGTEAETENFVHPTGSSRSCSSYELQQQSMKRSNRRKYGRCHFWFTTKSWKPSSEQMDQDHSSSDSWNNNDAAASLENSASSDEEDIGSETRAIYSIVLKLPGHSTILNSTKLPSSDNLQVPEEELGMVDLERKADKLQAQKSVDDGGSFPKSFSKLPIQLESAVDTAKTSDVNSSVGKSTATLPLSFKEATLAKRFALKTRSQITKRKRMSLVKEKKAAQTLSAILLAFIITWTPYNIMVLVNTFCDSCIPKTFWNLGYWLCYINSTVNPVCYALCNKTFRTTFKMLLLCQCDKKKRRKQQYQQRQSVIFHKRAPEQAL

[7] = target: T6, Muscarinic acetylcholine receptor M5 (Homo sapiens, UniProt P08912); assay: Antagonist activity at human muscarinic M5 receptor by calcium mobilization assay; format: functional
T6 sequence (P08912 whole entry): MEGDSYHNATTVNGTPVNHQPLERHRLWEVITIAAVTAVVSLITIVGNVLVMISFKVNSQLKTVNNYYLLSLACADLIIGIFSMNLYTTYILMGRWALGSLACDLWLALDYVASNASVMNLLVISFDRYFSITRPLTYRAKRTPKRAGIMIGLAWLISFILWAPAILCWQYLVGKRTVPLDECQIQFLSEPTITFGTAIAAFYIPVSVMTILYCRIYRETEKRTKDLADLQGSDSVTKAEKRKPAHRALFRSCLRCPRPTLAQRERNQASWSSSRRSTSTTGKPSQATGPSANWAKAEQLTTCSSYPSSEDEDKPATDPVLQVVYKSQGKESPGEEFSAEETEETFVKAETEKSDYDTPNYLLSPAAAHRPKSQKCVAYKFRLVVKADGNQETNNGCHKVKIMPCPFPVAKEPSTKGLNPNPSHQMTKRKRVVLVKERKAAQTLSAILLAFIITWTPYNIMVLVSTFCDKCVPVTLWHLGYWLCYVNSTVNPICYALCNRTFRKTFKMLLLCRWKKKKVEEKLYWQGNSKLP

[8] = target: T2, Muscarinic acetylcholine receptor M1 (Homo sapiens); assay: Agonist activity at human muscarinic M1 receptor expressed in TREx293 cells assessed as increase of soluble APPalpha release at 2 uM; format: functional, cell-based; details: HEK293
[9] = target: T7, Muscarinic acetylcholine receptor M4 (Homo sapiens, UniProt P08173); assay: Antagonist activity at human muscarinic M4 receptor by calcium mobilization assay; format: functional
T7 sequence (P08173 whole entry): T4 sequence (whole entry)

[10] = target: T8, Muscarinic acetylcholine receptor M2 (Homo sapiens, UniProt P08172); assay: Antagonist activity at human muscarinic M2 receptor by calcium mobilization assay; format: functional
T8 sequence (P08172 whole entry): T1 sequence (whole entry)

[11] = target: T5, Muscarinic acetylcholine receptor M3; assay: Antagonist activity at human muscarinic M3 receptor assessed as remaining activity measured as percentage of maximum response generated from 80% of saturating dose of ACh at 30 uM by calcium mobilization assay; format: functional
Target sequence in this assay (P20309 whole entry, looked up): as the sequence (P20309 whole entry) above

[12] = target: T7, Muscarinic acetylcholine receptor M4; assay: Agonist activity at human muscarinic M4 receptor by calcium mobilization assay; format: functional
[13] = target: T5, Muscarinic acetylcholine receptor M3; assay: Agonist activity at human muscarinic M3 receptor by calcium mobilization assay; format: functional
Target sequence in this assay (P20309 whole entry): as the sequence (P20309 whole entry) above

[14] = target: T3, Muscarinic acetylcholine receptor M1; assay: Agonist activity at human muscarinic M1 receptor by calcium mobilization assay; format: functional
[15] = target: T6, Muscarinic acetylcholine receptor M5; assay: Agonist activity at human muscarinic M5 receptor by calcium mobilization assay; format: functional
[16] = target: T8, Muscarinic acetylcholine receptor M2; assay: Agonist activity at human muscarinic M2 receptor by calcium mobilization assay; format: functional
[17] = target: T9, Muscarinic acetylcholine receptor M5 (Homo sapiens) (UniProt P08912); assay: Agonist activity at human muscarinic M5 receptor at 30 uM by calcium mobilization assay relative to acetylcholine; format: functional
T9 sequence (whole entry): T6 sequence (P08912 whole entry)

[18] = target: T1, Muscarinic acetylcholine receptor M2 (Homo sapiens); assay: Agonist activity at human muscarinic M2 receptor at 30 uM by calcium mobilization assay relative to acetylcholine; format: functional
[19] = target: T4, Muscarinic acetylcholine receptor M4 (Homo sapiens); assay: Agonist activity at human muscarinic M4 receptor at 30 uM by calcium mobilization assay relative to acetylcholine; format: functional
[20] = Clearance in rat at 1 mg/kg, iv and 10 mg/kg, po; format: ADME, organism-based; details: in vivo
[21] = Oral bioavailability in rat at 10 mg/kg; format: ADME, organism-based; details: in vivo
[22] = target: Muscarinic acetylcholine receptors; M1 & M2 (Homo sapiens) (UniProt P11229+P08172); assay: Selectivity ratio of EC50 for human muscarinic M2 receptor to EC50 for human muscarinic M1 receptor
[23] = Half life in rat at 1 mg/kg, iv and 10 mg/kg, po; format: ADME, organism-based; details: in vivo
[24] = AUC in rat at 1 mg/kg, iv; format: ADME, organism-based; parameters: dose 1 mg/kg, route intravenous; details: plasma
[25] = target: T5, Muscarinic acetylcholine receptor M3; assay: Agonist activity at human muscarinic M3 receptor at 30 uM by calcium mobilization assay relative to acetylcholine; format: functional
Target sequence in this assay (P20309 whole entry, looked up): as the sequence (P20309 whole entry) above

[26] = AUC in rat at 10 mg/kg, po; format: ADME, organism-based; parameters: dose 10 mg/kg, route oral; details: plasma
[27] = Volume of distribution at steady state in rat at 1 mg/kg, iv and 10 mg/kg, po; format: ADME, organism-based; details: in vivo, read-out: Vdss

SMILES	Activity [2]	Activity [3]	EC50 [4]	Activity [5]	Activity [8]	IC50 ([9]; read-out: IC50)	EC50 [12]	EC50 [13]	EC50 [14]	EC50 [16]	IC50 [9]	IC50 [10]	EC50 ([15]; read-out: EC50)	Activity [17]	other results
CCOC(=O)N1[C@@H]2CC[C@H]1C[C@@H](NCCNC(=O)c1ccccc1)C2	37%	34%	110 nM	2%	Active	3.1 µM	–	–	–	–	–	–	–	–	Activity [1]: 15%; IC50 [6]: > 10 µM; IC50 ([7]; read-out: IC50): 4.9 µM; IC50 ([10]; read-out: IC50): > 10 µM; Activity [11]: 13%
CCOC(=O)N1CCC(NCCNC(=O)c2ccccc2C)CC1	34%	35%	1600 nM	–	Active	–	Not Active	Not Active	2600 nM	Not Active	Not Active	Not Active	–	–	IC50 [7]: Not Active; EC50 [15]: Not Active
CCOC(=O)N1C[C@H]2CC[C@@H](C1)[C@H]2NCCNC(=O)c1ccccc1	46%	53%	92 nM	48%	Active	> 10 µM	–	–	18 nM	Not Active	–	Not Active	2.8 µM	31%	IC50 [6]: > 10 µM; Activity [11]: 45%
CCOC(=O)N1C2CCC1CC(N1CCC[C@@H](NC(=O)c3ccccc3)C1)C2 (mixture of isomers)	65%	75%	840 nM	–	Active	–	Not Active	Not Active	350 nM	–	Not Active	–	> 10 µM	21%	EC50 ([16]; read-out: EC50): > 10000 nM; Activity [18]: 27%
CCOC(=O)N1C2CCC1CC(N1CCC[C@@H](NC(=O)c3ccccc3C)C1)C2 (mixture of isomers)	59%	75%	59 nM	–	Active	–	–	–	17 nM	–	–	–	3.7 µM	62%	EC50 ([12]; read-out: EC50): > 10 µM; Activity [19]: 28%; EC50 ([13]; read-out: EC50): > 10 µM; clearance [20]: 189 mL/min/kg; bioavailability [21]: 70%; EC50 ([16]; read-out: EC50): 1800 nM; Ratio EC50 [22]: 100; half-life [23]: 46 min; Activity [18]: 66%; AUC [24]: 92.2 ng·h/mL; Activity [25]: 36%; AUC [26]: 639 ng·h/mL; Vd [27]: 11.8 L/kg
CCCCC1CCN(CCCN2C(=O)COc3cc(F)ccc32)CC1	81%	–	–	26%	–	> 10 µM	–	–	41 nM	–	–	–	1 µM	28%	Activity [1]: 30%; EC50 ([13]; read-out: EC50): 5.9 µM; IC50 ([10]; read-out: IC50): > 10 µM; Activity [25]: 19%
CCOC(=O)N1[C@@H]2CC[C@H]1C[C@H](NCCNC(=O)c1ccccc1)C2	57%	49%	970 nM	–	Active	–	Not Active	Not Active	–	Not Active	Not Active	Not Active	–	–	IC50 [7]: Not Active; EC50 [15]: Not Active
CCOC(=O)N1C[C@H]2CC[C@@H](C1)[C@H]2NCCNC(=O)c1cccc(Cl)c1	58%	52%	47 nM	40%	–	> 10 µM	–	Not Active	96 nM	Not Active	–	Not Active	4.2 µM	22%	–

— ChEMBL document CHEMBL2021911 (Bioorg Med Chem Lett, 2012)
